{"source": "patent US20160213849A1", "about": "“CONDITIONAL REQUIRED PRIMING” (SANOFI-AVENTIS DEUTSCHLAND GMBH, priority 2013, published 2016)", "assay_type_in_all_cases": "cell-based", "key": {"Aspergillus niger": {"test_system": "Aspergillus niger", "experiment": "preservative efficacy test of inoculated m-cresol test solutions", "details": "1.8 mg/ml m-cresol", "protocol": "(§1) In a first experiment, the minimum m-cresol concentration necessary to ensure microbiological integrity was determined.\n(§2) Test solutions with m-cresol concentrations of between 2.7 mg/ml down to 1.5 mg/ml were inoculated with an inoculum of different bacteria and fungi/yeast and stored for 28 days. During the test, the bacteria and fungi/yeast population of the test solutions were repeatedly analyzed."}, "Candida albicans": {"test_system": "Candida albicans", "experiment": "preservative efficacy test of inoculated m-cresol test solutions", "details": "1.8 mg/ml m-cresol", "protocol": "as §1, §2"}, "Escherichia coli": {"test_system": "Escherichia coli", "experiment": "preservative efficacy test of inoculated m-cresol test solutions", "details": "1.8 mg/ml m-cresol", "protocol": "as §1, §2"}, "Staphilococcus aureus": {"test_system": "Staphilococcus aureus", "experiment": "preservative efficacy test of inoculated m-cresol test solutions", "details": "1.8 mg/ml m-cresol", "protocol": "as §1, §2"}, "Pseudomonas aeruginosa": {"test_system": "Pseudomonas aeruginosa", "experiment": "preservative efficacy test of inoculated m-cresol test solutions", "parameters": "unit not given beside the values", "details": "1.8 mg/ml m-cresol", "protocol": "as §1, §2"}, "bacteria and fungi/yeast": {"test_system": "bacteria and fungi/yeast", "experiment": "comparison of test solution results to Ph. Eur. and USP criteria", "protocol": "The Ph. Eur. and USP criteria are given in table 1, wherein the numbers designate the required order of magnitude in CFU (colony forming unit) decrease as a function of time since the time of contamination (T0).\nas §2\nThe analysis presented in table 2 for the 1.8 mg/ml m-cresol test solution was also performed for the test solutions with different m-cresol contents. The results were then compared to the Ph.Eur. and USP criteria to determine, which m-cresol contents are sufficient to fulfil these criteria."}}, "note": "Several values for one entry are separate records, joined by “and”; a condition that tells them apart may be missing. Identical values can stand only once.", "data": [{"smiles": "Cc1cccc(O)c1", "note": "[m-cresol]", "values": [{"measurement": "Aspergillus niger content", "setting": "Aspergillus niger; 7 d", "result": 15}, {"measurement": "Aspergillus niger content", "setting": "Aspergillus niger; 14 d", "result": "<10"}, {"measurement": "Aspergillus niger content", "setting": "Aspergillus niger; 28 d", "result": "<10"}, {"measurement": "Aspergillus niger content", "setting": "Aspergillus niger; Start (T0)", "result": 250000}, {"measurement": "Candida albicans content", "setting": "Candida albicans; 7 d", "result": 100}, {"measurement": "Candida albicans content", "setting": "Candida albicans; 14 d", "result": 30}, {"measurement": "Candida albicans content", "setting": "Candida albicans; 28 d", "result": "<10"}, {"measurement": "Candida albicans content", "setting": "Candida albicans; Start (T0)", "result": 400000}, {"measurement": "Escherichia coli content", "setting": "Escherichia coli; 6 h", "result": 55}, {"measurement": "Escherichia coli content", "setting": "Escherichia coli; 24 h", "result": "<10"}, {"measurement": "Escherichia coli content", "setting": "Escherichia coli; 7 d", "result": "<10"}, {"measurement": "Escherichia coli content", "setting": "Escherichia coli; 14 d", "result": "<10"}, {"measurement": "Escherichia coli content", "setting": "Escherichia coli; 28 d", "result": "<10"}, {"measurement": "Escherichia coli content", "setting": "Escherichia coli; Start (T0)", "result": 190000}, {"measurement": "Staphilococcus aureus content", "setting": "Staphilococcus aureus; 6 h", "result": 2200}, {"measurement": "Staphilococcus aureus content", "setting": "Staphilococcus aureus; 24 h", "result": "<10"}, {"measurement": "Staphilococcus aureus content", "setting": "Staphilococcus aureus; 7 d", "result": "<10"}, {"measurement": "Staphilococcus aureus content", "setting": "Staphilococcus aureus; 14 d", "result": "<10"}, {"measurement": "Staphilococcus aureus content", "setting": "Staphilococcus aureus; 28 d", "result": "<10"}, {"measurement": "Staphilococcus aureus content", "setting": "Staphilococcus aureus; Start (T0)", "result": 170000}, {"measurement": "Pseudomonas aeruginosa content", "setting": "Pseudomonas aeruginosa; 6 h", "result": "<10"}, {"measurement": "Pseudomonas aeruginosa content", "setting": "Pseudomonas aeruginosa; 24 h", "result": "<10"}, {"measurement": "Pseudomonas aeruginosa content", "setting": "Pseudomonas aeruginosa; 7 d", "result": "<10"}, {"measurement": "Pseudomonas aeruginosa content", "setting": "Pseudomonas aeruginosa; 14 d", "result": "<10"}, {"measurement": "Pseudomonas aeruginosa content", "setting": "Pseudomonas aeruginosa; 28 d", "result": "<10"}, {"measurement": "Pseudomonas aeruginosa content", "setting": "Pseudomonas aeruginosa; Start (T0)", "result": 23000}, {"measurement": "m-cresol content still enough to fulfil both the Ph.Eur. criterion A and the USP criteria", "setting": "bacteria and fungi/yeast; conclusion of first experiment", "result": "2.1 mg/mL and 1.8 mg/mL"}, {"measurement": "m-cresol content down to which the USP criteria are fulfilled", "setting": "bacteria and fungi/yeast; lowest content tested 1.5 mg/ml", "result": 1.5, "unit": "mg/mL"}]}]}
